Measured values from paper PMC6017567, “Chemical Constituents from Apios americana and Their Inhibitory Activity on Tyrosinase” (Molecules : A Journal of Synthetic Chemistry and Natural …, 2018).
Read-outs that look alike come from different tables or passages of the source.

Assays:
[1] = target: T1, tyrosinase (Agaricus bisporus, UniProt C7FF04); test: Enzyme kinetics (Lineweaver-Burk and Dixon plots); format: biochemical; conditions: Lineweaver-Burk plot
Protocol: Enzyme kinetics are used to confirm the binding positions between an enzyme and inhibitor [7]. This study confirmed the effect of the substrate concentration on tyrosinase activity using four different concentrations. The initial velocity (vi) was calculated at steady-state. A Lineweaver–Burk plot was represented by 1/v versus 1/substrate in the presence of inhibitor according to enzyme kinetics theory. Their regression lines intersected the y-axis at the same point and the x-axis at different points.
Target sequence in this assay (C7FF04 2-392): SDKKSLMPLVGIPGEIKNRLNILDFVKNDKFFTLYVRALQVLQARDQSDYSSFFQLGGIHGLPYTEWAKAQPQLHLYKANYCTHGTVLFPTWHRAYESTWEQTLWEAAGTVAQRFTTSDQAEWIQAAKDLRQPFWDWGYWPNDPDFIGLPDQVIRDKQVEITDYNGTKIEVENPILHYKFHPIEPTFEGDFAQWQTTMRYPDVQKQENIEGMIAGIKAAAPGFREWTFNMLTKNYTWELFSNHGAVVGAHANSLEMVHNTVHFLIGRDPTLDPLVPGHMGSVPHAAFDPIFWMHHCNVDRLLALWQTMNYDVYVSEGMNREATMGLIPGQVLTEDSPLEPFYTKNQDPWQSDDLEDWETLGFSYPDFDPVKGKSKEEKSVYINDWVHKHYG

[2] = target: T1, tyrosinase; test: Slow-binding (time-dependent) inhibition kinetics; format: biochemical; set-up: purchased Sigma-Aldrich T3824; conditions: for Time dependence of interaction with tyrosinase: time-course enzyme assay
Protocol: These curves were calculated by the following Equation (1):(1) [P]=vst+vi−vs/kobs[1−exp(−kobst)] where [P] is the concentration of product from the catalytic reaction, and the first-order rate constant (kobs) is the slow-binding constant corresponding to vi and vs.
The plot of kobs versus [inhibitor, I] is represented in Figure 3B.
First, the initial enzyme–ligand complex (E·I) forms rapidly, and then the isomerized enzyme–ligand complex (E*·I) forms slowly. Using Equation (3), k3 , k4 , and Kiapp kinetic parameters were calculated as 0.0041 S^−1, 0.0004 S^−1, and 35.8 µM, respectively (Table 2).
Target sequence in this assay (C7FF04 1-392 limits assumed): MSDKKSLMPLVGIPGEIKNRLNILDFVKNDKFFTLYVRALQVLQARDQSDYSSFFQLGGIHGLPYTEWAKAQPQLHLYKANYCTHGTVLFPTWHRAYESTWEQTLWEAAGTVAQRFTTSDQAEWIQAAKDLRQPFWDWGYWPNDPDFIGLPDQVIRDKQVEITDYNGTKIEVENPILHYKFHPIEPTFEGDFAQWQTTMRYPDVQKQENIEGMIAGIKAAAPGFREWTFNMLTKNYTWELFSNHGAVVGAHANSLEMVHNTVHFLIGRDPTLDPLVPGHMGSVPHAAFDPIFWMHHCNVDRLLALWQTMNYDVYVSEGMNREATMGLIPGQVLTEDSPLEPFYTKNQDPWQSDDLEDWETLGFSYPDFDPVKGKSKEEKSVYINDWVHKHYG

[3] = target: T1, tyrosinase; format: biochemical; conditions: preincubated with enzyme
Target sequence in this assay (C7FF04 2-392): as the sequence (C7FF04 2-392) above
Protocol: The amount of L-DOPA converted from L-tyrosine as substrate of this enzyme was quantified in the presence of each respective compound [7].
Briefly, tyrosinase (~45 U/mL, 130 µL) in 50 µM phosphate buffer (pH 6.8) was added to 96-well plates. Twenty microliters of each respective compound (1 mM) were dissolved in MeOH, and compounds 2 and 8 (diluted to 0.065 mM) were added. Finally, 50 µL 1.5 mM L-tyrosine were added as a substrate. After initiating the enzyme reaction at 37 °C, the products were measured using UV-Vis determination (wavelength, 475 nm) for 20 min. The inhibition ratio was calculated using the following Equation (3):Inhibitory activity (%) = [(Δcontrol − Δinhibitor)/Δcontrol] × 100(3)

[4] = target: T1, tyrosinase; set-up: method as in earlier work; conditions: ref 8 (Chang et al.); cited from earlier work
Target sequence in this assay (C7FF04 2-392): as above

[5] = time-dependent inhibition, kobs versus [I]

Compound	Binding Mode [1]	Time dependence of interaction with tyrosinase [2]	Increase of inhibitory activity by preincubation compared with IC50 in the absence of preincubation [3] [fold]	Ki [2] [µM]	k5 [2, 5] [S^−1]	k6 [2, 5] [S^−1]	Binding Mode [4]
O=c1c(-c2ccc(O)cc2O)coc2cc(O[C@@H]3O[C@H](CO[C@@H]4O[C@H](CO)[C@@H](O)[C@H](O)[C@H]4O)[C@@H](O)[C@H](O)[C@H]3O)cc(O)c12 [compound 8, 2′-hydroxygenistein-7-O-gentibioside]	Competitive	did not exhibit this pattern					
O=c1c2c(O)cc(O)cc2oc2oc3cc(O)ccc3c12 [compound 2, lupinalbin A]	Competitive	time-dependent manner	3	35.8	0.0041	0.0004	
O=c1c(-c2ccc(O)cc2)coc2cc(O)c(O)cc12 [6,7,4′-trihydroxyisolflavone]							competitive inhibitor
